Patent publication US20030157502A1, “Chemotherapeutant screening method” (priority 1999, published 2003)
Read-outs that look alike come from different tables or passages of the source. Starred links: 1 amine or outer side, 2 acyl side, 3 side chain; linkers in the order of their positions; H or OH if unused. Positions of bridges follow the written chain, without caps; N, C: chain ends. Non-standard residues stand in square brackets, D forms with d. Residues, ends and D or L forms follow the SMILES beside them. Chains are numbered I, II in the order given. Actinocin(9to1) = Cc1c2oc3c(C)ccc(C(=O)[*:1])c3nc-2c(C(=O)[*:2])c(N)c1=O; NMeV = CN[C@H](C(=O)O)C(C)C; Sar = CNCC(=O)O

How the values were obtained:
CD95L-mRNA [1] = format: cell-based, human; conditions: for upward regulation of CD95L-mRNA: HepG2 (wt p53) cells; for effect on transcription or translation of the housekeeping gene β-actin: subtoxic concentrations
CD95L-mRNA [2] = test: CD95L-mRNA expression by RT-PCR in Hep3B cells; format: cell-based, human; conditions: Hep3B (p53 -/-) cells
CD95L promoter = CD95L promoter luciferase reporter assay in transiently transfected Hep3B cells; format: cell-based, human; conditions: for effect of the combination on activation of the CD95L promoter: 5-FU plus etoposide, 48 hours
Procedure: Every bar represents the calculated value from treated/untreated cells. The transfection efficiency in A and B was monitored by cotransfection of a renilla Luciferase construct controlled by a basal promoter. […] B: Titration of 5-FU. Hep3B cells were transiently transfected with the −36/+100 promoter construct. […] The cells were lyzed and the luciferase activity was determined.
The cotransfected cells were then treated with 100 μg/ml 5-FU for 48 hours or not treated. The transfection efficiency was normalized by either cotransfection of an expression vector for chloramphenicol transferase (CAT) or renilla luciferase (both controlled by a basal promoter). The luciferase activity was measured using the “dual luciferase” assay (Promega company) in accordance with the manufacturer's instructions, and the CAT activity was determined by means of a commercially available CAT ELISA. Average values (with standard deviation) from different independent experiments are shown. B: “Dual luciferase” assay with Hep3B cells cotransfected with the described CD95L promoter construct and a renilla-luciferase expression vector (as a control for the transfection efficiency). The cells were collected at the indicated times. In addition, the protein content of the transfected cells was determined. The data are average values (with standard deviation) from three samples of a representative experiment. Four independent experiments were carried out.
Hep3B cells were transfected with the −36/+100 construct (CD95L prom wt) or the APX4 construct (mutated −36/+100 CD95L.luc; Cd95L prom mut). The transfection efficiency was monitored by cotransfection with renilla luciferase. Following transfection the cells were treated with 5-FU (100 μg/ml) for 48 hours. The luciferase activity was measured and the multiplication of induction was calculated.
One day before the transfection, the cells were plated out with a density of 0.6×10^6/9 cm Petri dishes. The medium was exchanged two hours before the transfection. The transfection was carried out by means of the method based on calcium phosphate precipitation. In summary, 5 to 40 μg DNA were diluted in 500 μl of a calcium chloride solution. The DNA/calcium chloride mixture was added drop-wise to 500 μl HBS. Precipitation was carried out at room temperature for 20 min., and then the precipitation mixture was added to the culture medium. The precipitate was allowed to stay on the cells for 12 to 24 hours. Thereafter, the cells were shock-treated using 16% glycerin in full medium for 3 min. Following three wash steps using PBS, the cells were cultured in medium supplemented with 20% FCS for at least six hours. Finally, the cells were distributed over 6-well plates, and the chemotherapeutic treatment was started for different periods.
After three wash steps in PBS, the cells were lyzed in 200 μl passive lysis buffer (Promega). Following 20 minutes of incubation at room temperature, the cells were scratched off the plates. The lyzates were subjected to two freeze/thaw cycles and then cell debris was removed by centrifugation.

HepG2 cells = test: Apoptosis by PI exclusion and forward/side scatter (FSC/SSC); format: cell-based; conditions: 100 μg/ml 5-FU, after 48 hours
Procedure: FIG. 1: Chemotherapeutic agents effect CD95-mediated death in HepG2 cells HepG2 cells were cultured almost up to confluence and then incubated with 100 μg/ml 5-FU over the indicated periods in the presence of either an isotype-adapted control antibody or the anti-CD95L antibody NOK-1 (50 μg/ml). The same experiment was carried out with the addition of CD95-Fc (50 μg/ml). Apoptosis was determined by PI exclusion and measurement of the forward/side scatter (FSC/SSC). The data shown are average values with standard deviations from three samples.
Following the corresponding treatment, the cells were trypsinated with 1% trypsin-EDTA for 5 min., washed twice with PBS and stained using 2.5 μg/ml propidium iodide (PI; Sigma). The stain uptake was measured by means of a “FACScan” cytometer (Becton Dickinson GmbH, Heidelberg, Germany) using the “CellQuest” Software. Changes in the forward/side scatter (FSC/SSC) of the cell population were evaluated as well. For quantifying the DNA fragmentation the supernatants were centrifuged at 200×g, the cells were trypsinated and washed as indicated above. […] The nuclei were then analyzed as regards their DNA content by means of flow cytometry (Nicoletti et al., Journal of Immunological Methods 139 (1991), 271). […]

SKW6.4 cells = test: 51Cr release assay, Hep3B effector cells and SKW6.4 target cells; format: cell-based, human; conditions: Hep3B treated with 100 μg/ml 5-FU 48 hours before incubation
Procedure: FIG. 3: The treatment with chemotherapeutic agents results in an upward regulation of functional CD95L A ^51Cr release assay with Hep3B cells as effectors and SKW6.4 cells as target was used. Hep3B cells were cultured in 96-well plates treated with 5-FU. After 48 hours, the chemotherapeutic agents were removed from the culture medium and ^51Cr-labeled SKW6.4 cells were added with either a control antibody or the anti-CD95L antibody NOK-1. Following incubation overnight, the supernatants were measured in a gamma counter. Relative lysis was calculated as indicated in Example 1. E/T is the ratio between effector cells and target cells. Every series of concentration was carried out threefold. The diagram represents an experiment from a series of independent experiments having the same result.
CD95L-mediated cytotoxicity induced by chemotherapy was studied. Hep3B cells (effector cells) were seeded into 96-well plates and treated with chemotherapeutic agents for 48 hours. […] After 12 to 16 hours, 100 μl supernatant of each well were collected and measured in a gamma counter. The specific lysis was calculated in accordance with formula L=(E−S)/(T−S), E representing the gamma counts of the unknown sample, S being the spontaneous lysis of the labeled target cells in the medium without effector cells, and T representing the maximum release of the target cells kept in 2 N HCl. […]

c-Jun [3] = test: c-Jun immunofluorescence in Hep3B cells; format: cell-based, human; conditions: 5-FU 100 μg/ml for 40 hours
Procedure: (§1) Thereafter, the cells were either not treated (A) or treated with 5-FU (100 μg/ml) for 40 hours (B), fixed and stained as described. C+D: Human primary hepatocytes were isolated as described in Example 1 and seeded onto culture dishes. Thereafter, the cells were either not treated (C) or treated with 5-FU (50 μg/ml) for 40 hours (D), fixed and stained with an antibody specific to c-Jun.
Cultured Hep3B cells or freshly isolated human primary hepatocytes were plated onto Lab-Tek™ chamber slides (Renner GmbH, Darmstadt, Germany). Following culturing over a period of at least two days, the cells were treated with chemotherapeutic agents. Thereafter, fixation in methanol/acetone (5 min. or 10 sec. at −20° C.) was carried out. Then, the cells were initially incubated at 37° C. for 1 hour with the specific primary antibody against human c-Jun (Santa Cruz GmbH, Heidelberg, Germany), and after three wash steps using PBS, the cells were covered with fluorescein-isothiocyanate-conjugated goat anti-rabbit IgG (Dianova, Hamburg, Germany) for 1 hour. Non-specific staining was monitored by incubation with mouse or rabbit immunoglobulins in place of the specific primary antibody or by blocking the primary antibody with the immunogenic peptide. The slides were covered with cover glasses and evaluated by means of a fluorescence microscope. […]

c-Jun [4] = test: c-Jun immunofluorescence in primary human hepatocytes; format: cell-based; conditions: 5-FU 50 μg/ml for 40 hours
Procedure: as §1
Primary human hepatocytes were obtained by means of a 2-step perfusion technique from healthy liver tissue of patients undergoing partial liver resection. For this purpose, a cannula was introduced into a blood vessel of the removed liver tissue and it was perfused with Ca-free and Mg-free “Hank's balanced salt solution (HBSS; Gibco BRL) containing 0.5 mM EDTA and 50 mM HEPES for 15 to 20 min. […] The viability was determined by means of the trypan blue exclusion method. […]
Cultured Hep3B cells or freshly isolated human primary hepatocytes were plated onto Lab-Tek™ chamber slides (Renner GmbH, Darmstadt, Germany). […] Non-specific staining was monitored by incubation with mouse or rabbit immunoglobulins in place of the specific primary antibody or by blocking the primary antibody with the immunogenic peptide. The slides were covered with cover glasses and evaluated by means of a fluorescence microscope. […]

Compound | upward regulation of CD95L-mRNA (CD95L-mRNA [1]) | upward regulation of CD95L-mRNA (CD95L-mRNA [2]) | effect on the upward regulation of CD95L following treatment with chemotherapeutic agents (CD95L-mRNA [1]) | effect on transcription or translation of the housekeeping gene β-actin (CD95L-mRNA [1]) | effect of the combination on activation of the CD95L promoter (CD95L promoter; Hep3B cells) | also measured
bleomycin | regulated upward | regulated upward |  |  |  | 
C[C@@H]1C[C@@H]([C@H](O)CC2CC(=O)NC(=O)C2)C(=O)[C@@H](C)C1 [cycloheximide] |  |  | reduced efficiently | no effect |  | 
COc1cc([C@@H]2c3cc4c(cc3[C@@H](O[C@@H]3O[C@@H]5CO[C@@H](C)O[C@H]5[C@H](O)[C@H]3O)[C@H]3COC(=O)[C@H]23)OCO4)cc(OC)c1O [etoposide] | regulate upward | regulate upward |  |  | synergistic effect | 
O=c1[nH]cc(F)c(=O)[nH]1 [5-FU, 5-fluorouracil] | regulate upward | regulate upward |  |  | synergistic effect | apoptosis rate (HepG2 cells): 43%; killing of CD95-bearing SKW6.4 cells by treated Hep3B cells (SKW6.4 cells): significant killing; inducibility of CD95L promoter luciferase constructs (-1204/+100 to -36/+100) (CD95L promoter; Hep3B cells transiently transfected): inducible; inducibility of the AP-1-mutated -36/+100 reporter construct (CD95L promoter; Hep3B cells, 100 μg/ml 5-FU, 48-hour treatment): almost fully eliminated; time of maximum activation of the -36/+100 construct (CD95L promoter; Hep3B cells, -36/+100 luciferase construct): 64 h; response of the -36/+19 construct (lacks AP-1 site) (CD95L promoter; Hep3B cells, incubation up to 64 hours): did not respond; AP-1 (c-Jun) nuclear staining (c-Jun [3]): widely accumulated AP-1 within the nucleus; AP-1 (c-Jun) nuclear staining (c-Jun [4]): intensive nuclear reactivity
Cc1c2oc3c(C)ccc(C(=O)N[C@@H]4C(=O)N[C@H](C(C)C)C(=O)N5CCC[C@H]5C(=O)N(C)CC(=O)N(C)[C@@H](C(C)C)C(=O)O[C@@H]4C)c3nc-2c(C(=O)N[C@@H]2C(=O)N[C@H](C(C)C)C(=O)N3CCC[C@H]3C(=O)N(C)CC(=O)N(C)[C@@H](C(C)C)C(=O)O[C@@H]2C)c(N)c1=O [actinomycin C1] (I: T[dV]P[Sar][NMeV] / II: T[dV]P[Sar][NMeV]; ester I:1-I:C, II:1-II:C; linker I:N-II:N via Actinocin(9to1)) |  |  | reduced efficiently | no effect |  | 
